According to US9079913B2, “Spiro-oxindole MDM2 antagonists” (The Regents of the University of Michigan, priority 2009, dated 2015):
Like-named read-outs stand apart in the source and are kept apart here.

Legend:
[1] = test system: cancer cell lines with wild-type p53 / mutated or deleted p53 (ATCC); assay: Cell growth assay (WST-8), other cancer cell lines; type: cell-based
[2] = test system: Isogenic HCT-116 colon cancer cell lines; assay: cells; type: cell-based;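 further: cells grown in 96-well plates in McCoy's 5A medium with 10% FBS, exposed to compound for 4 days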
Procedure: Cells were seeded in 96-well flat bottom cell culture plates at a density of 2−3×10^3 cells/well with compounds and incubated for 4 days.

[3] = target: recombinant human His-tagged MDM2 protein (residues 1-118) (Homo sapiens (Human), UniProt Q00987); assay: Fluorescence-polarization MDM2 binding assay;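 further: fluorescence polarization read after three hours of incubation in potassium phosphate buffer containing bovine gamma globulin and Triton X-100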
[4] = Homo sapiens, LNCaP, Table 19D, LNCaP cells, read-out: LNCaP IC50
[5] = Homo sapiens, PC-3, Table 19D, PC3 cells, read-out: PC3 IC50
[6] = Homo sapiens, HCT-116, read-out: HCT116p53KO IC50, Table 19D, HCT116 p53KO
[7] = Homo sapiens, HCT-116, read-out: HCT116p53WT IC50, Table 19D, HCT116 p53WT
[8] = Table 19D, read-out: MDM2 Binding Affinities IC50
[9] = Homo sapiens, LNCaP, Table 19A, LNCAP cells, p53 wild-type, cell growth, read-out: LNCAP (p53 wild-type) IC50
[10] = Homo sapiens, PC-3, Table 19A, PC-3 cells, deleted p53, cell growth, read-out: PC-3 (deleted p53) IC50
[11] = Homo sapiens, HCT-116, read-out: HCT-116 (p53-/-) IC50, Table 19A, HCT-116 p53-/-, cell growth
[12] = Homo sapiens, HCT-116, read-out: HCT-116 (p53 wild-type) IC50, Table 19A, HCT-116 p53 wild-type, cell growth
[13] = Table 19A, FP binding assay, read-out: MDM2 IC50
[14] = Homo sapiens, Table 19D, SJSA-1 cells, unit inferred, read-out: SJSA-1
[15] = Homo sapiens, LNCaP, Table 19B, LNCaP cells, read-out: Inhibition of cell growth IC50, LNCaP
[16] = Homo sapiens, PC-3, Table 19B, PC3 cells, read-out: Inhibition of cell growth IC50, PC3
[17] = Homo sapiens, HCT-116, read-out: Inhibition of cell growth IC50, HCT116 p53 KO, Table 19B, HCT116 p53 KO
[18] = Homo sapiens, HCT-116, read-out: Inhibition of cell growth IC50, HCT116 p53 WT, Table 19B, HCT116 p53 WT
[19] = Table 19B, read-out: Binding affinities to MDM2 protein as determined by FP based assay IC50

recombinant human His-tagged MDM2 protein (residues 1-118), sequence (Q00987 1-118): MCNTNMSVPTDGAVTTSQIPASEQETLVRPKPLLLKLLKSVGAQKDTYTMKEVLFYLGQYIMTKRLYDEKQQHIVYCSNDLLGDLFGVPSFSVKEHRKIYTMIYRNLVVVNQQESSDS

| SMILES | IC50 [1, 4] | IC50 [1, 5] | IC50 [2, 6] | IC50 [2, 7] | IC50 [3, 8] | further results |
| --- | --- | --- | --- | --- | --- | --- |
| CC(C)(C)C[C@H]1N[C@@H](C(=O)NCC[C@H](O)CO)[C@H](c2ccc(F)c(F)c2)[C@@]12C(=O)Nc1cc(F)c(F)cc12 [MI-519-12] | < 3 µM | > 10 µM | > 10 µM | < 3 µM | < 10 µM |  |
| CC(C)(C)C[C@H]1N[C@@H](C(=O)NCC[C@H](O)CO)[C@H](c2ccc(F)c(Cl)c2)[C@@]12C(=O)Nc1cc(F)ccc12 [MI-519-14] | < 5 µM | > 10 µM | > 10 µM | < 5 µM | < 1 µM |  |
| CN1[C@@H](C(=O)NCC[C@H](O)CO)[C@H](c2cccc(Cl)c2)[C@@]2(C(=O)Nc3cc(F)ccc32)[C@H]1CC(C)(C)C [MI-519-15-me] | 6.4 µM | > 10 µM | > 10 µM | 5.2 µM | < 5 µM |  |
| CC(C)(C)C[C@H]1N[C@@H](C(=O)NCC[C@H](O)CO)[C@H](c2cccc(Cl)c2)[C@@]12C(=O)Nc1cc(F)ccc12 [MI-519-15] | < 5 µM | > 10 µM | > 10 µM | < 3 µM | < 1 µM |  |
| CC(C)(C)C[C@H]1N[C@@H](CO)[C@H](c2cccc(Cl)c2)[C@@]12C(=O)Nc1cc(Cl)c(F)cc12 [MI-519-20] | 2.2 ± 0.2 µM | 9 ± 1.1 µM | 13.4 ± 0.8 µM | 1.9 ± 0.1 µM | < 5 µM |  |
| CCCN1CCN(CCNC(=O)[C@@H]2N[C@H](CC(C)(C)C)[C@]3(C(=O)Nc4cc(Cl)c(F)cc43)[C@H]2c2cccc(Cl)c2)CC1 [MI-519-21] | 1.5 ± 0.6 µM | 4.8 ± 0.4 µM | 5.8 ± 1.9 µM | 1.4 ± 0.5 µM | < 3 µM |  |
| CC(C)(C)C[C@H]1N[C@@H](C(=O)NCCC2CCC(O)C2)[C@H](c2cccc(Cl)c2)[C@@]12C(=O)Nc1cc(F)c(F)cc12 (stereo partly drawn) [MI-519-25] | < 5 µM | > 10 µM | > 10 µM | < 3 µM | < 3 µM |  |
| CC(C)(C)C[C@H]1N[C@@H](C(=O)NCCC2CCC(O)C2)[C@H](c2cccc(Cl)c2)[C@@]12C(=O)Nc1cc(F)c(F)cc12 (stereo partly drawn) [MI-519-26] |  |  |  |  | < 10 µM | IC50 ([1]; Table 19D, LNCaP cells, read-out: LNCaP IC50): < 5 µM; IC50 ([1]; Table 19D, PC3 cells, read-out: PC3 IC50): > 10 µM; IC50 ([2]; read-out: HCT116p53KO IC50, Table 19D, HCT116 p53KO): > 10 µM; IC50 ([2]; read-out: HCT116p53WT IC50, Table 19D, HCT116 p53WT): < 5 µM |
| CC(O)C(O)CCNC(=O)[C@@H]1N[C@H](CC(C)(C)C)[C@]2(C(=O)Nc3cc(Cl)c(F)cc32)[C@H]1c1cccc(Cl)c1 (stereo partly drawn) [MI-519-30] |  |  |  |  |  | IC50 [1, 9]: 1.1 µM; IC50 [1, 10]: 19.1 ± 2.4 µM; IC50 [2, 11]: 19.6 ± 5.2 µM; IC50 [2, 12]: 1.3 ± 0.3 µM; IC50 [3, 13]: < 2 µM |
| CC(C)(C)C[C@H]1N[C@@H](C(=O)NCCN2CC[C@H](O)C2)[C@H](c2cccc(Cl)c2)[C@@]12C(=O)Nc1cc(Cl)c(F)cc12 [MI-519-35] |  |  |  |  |  | IC50 [1, 9]: 1.4 ± 0.5 µM; IC50 [1, 10]: 6.7 ± 0.9 µM; IC50 [2, 11]: 5.3 ± 0.6 µM; IC50 [2, 12]: 1.8 ± 0.5 µM; IC50 [3, 13]: < 1 µM |
| CC(C)(C)C[C@H]1N[C@@H](C(=O)NCC2CC(O)C(O)C2)[C@H](c2cccc(Cl)c2)[C@@]12C(=O)Nc1cc(Cl)c(F)cc12 (stereo partly drawn) [MI-519-36] |  |  |  |  |  | IC50 [1, 9]: 0.9 ± 0.1 µM; IC50 [1, 10]: 20.6 ± 5.3 µM; IC50 [2, 11]: 29.8 ± 6.5 µM; IC50 [2, 12]: 1.2 ± 0.6 µM; IC50 [3, 13]: < 1 µM |
| CC(C)(C)C[C@H]1N[C@@H](C(=O)NCC2CC(O)C(O)C2)[C@H](c2cccc(Cl)c2)[C@@]12C(=O)Nc1cc(Cl)c(F)cc12 (stereo partly drawn) [MI-519-37] |  |  |  |  |  | IC50 ([1]; Table 19A, LNCAP cells, p53 wild-type, cell growth, read-out: LNCAP (p53 wild-type) IC50): 0.6 ± 0.1 µM; IC50 ([1]; Table 19A, PC-3 cells, deleted p53, cell growth, read-out: PC-3 (deleted p53) IC50): 14 ± 2.2 µM; IC50 ([2]; read-out: HCT-116 (p53-/-) IC50, Table 19A, HCT-116 p53-/-, cell growth): 14.9 ± 2 µM; IC50 ([2]; read-out: HCT-116 (p53 wild-type) IC50, Table 19A, HCT-116 p53 wild-type, cell growth): 1 ± 0.5 µM; IC50 [3, 13]: < 1 µM |
| CN1CCC(NC(=O)[C@@H]2N[C@H](CC(C)(C)C)[C@]3(C(=O)Nc4cc(Cl)ccc43)[C@H]2c2cccc(Cl)c2F)CC1 [MI-519-52] | < 1 µM | > 3 µM | > 5 µM | < 1 µM | < 1 µM | IC50 [1, 14]: < 1 µM |
| CN1CCC(CNC(=O)[C@@H]2N[C@H](CC(C)(C)C)[C@]3(C(=O)Nc4cc(Cl)ccc43)[C@H]2c2cccc(Cl)c2F)CC1 [MI-519-53-1] | < 1 µM | > 3 µM | > 3 µM | < 1 µM | < 1 µM | IC50 [1, 14]: < 1 µM |
| CC(C)(C)C[C@H]1N[C@@H](C(=O)N[C@H]2CC[C@@H](N)C2)[C@H](c2cccc(Cl)c2F)[C@@]12C(=O)Nc1cc(Cl)ccc12 [MI-519-55] | < 2 µM | > 3 µM | > 5 µM | < 2 µM | < 1 µM | IC50 [1, 14]: < 3 µM |
| CC(C)(C)C[C@H]1N[C@@H](C(=O)NC2CCN(CCF)CC2)[C@H](c2cccc(Cl)c2F)[C@@]12C(=O)Nc1cc(Cl)ccc12 [MI-519-56] |  |  |  |  |  | IC50 [1, 9]: > 10 µM; IC50 ([1]; Homo sapiens, SJSA-1, Table 19A, SJSA-1 cells, p53 wild-type, cell growth, read-out: SJSA-1 (p53 wild-type) IC50): < 1 µM; IC50 [2, 12]: < 1 µM; IC50 [3, 13]: < 1 µM |
| CC(C)(C)C[C@H]1N[C@@H](C(=O)NC2CCN(CCC(F)(F)F)CC2)[C@H](c2cccc(Cl)c2F)[C@@]12C(=O)Nc1cc(Cl)ccc12 [MI-519-57-1] | < 3 µM | 8.8 µM | 9.5 µM | < 3 µM | < 1 µM | IC50 [1, 14]: < 3 µM |
| CN1CC[C@@H](NC(=O)[C@@H]2N[C@H](CC(C)(C)C)[C@]3(C(=O)Nc4cc(Cl)ccc43)[C@H]2c2cccc(Cl)c2F)[C@@H](F)C1 [MI-519-58] | < 3 µM | > 10 µM | > 10 µM | < 3 µM | < 1 µM | IC50 [1, 14]: < 3 µM |
| CC(C)(C)C[C@H]1N[C@@H](C(=O)N[C@@H]2CCN(CCF)C[C@@H]2F)[C@H](c2cccc(Cl)c2F)[C@@]12C(=O)Nc1cc(Cl)ccc12 [MI-519-59] | < 3 µM | > 10 µM | > 10 µM | < 1 µM | < 1 µM | IC50 [1, 14]: < 3 µM |
| O=C(NCC[C@H](O)CO)[C@@H]1N[C@H](CCc2ccccc2)[C@]2(C(=O)Nc3cc(Cl)c(F)cc32)[C@H]1c1cccc(Cl)c1 [MI-701] |  |  |  |  |  | IC50 [1, 15]: 3 ± 3.5 µM; IC50 [1, 16]: 48.9 ± 22.4 µM; IC50 [2, 17]: 33.8 ± 14.6 µM; IC50 [2, 18]: 16.7 ± 13 µM; IC50 [3, 19]: > 10 µM |
| CCC[C@H]1N[C@@H](C(=O)NCC[C@H](O)CO)[C@H](c2cccc(Cl)c2)[C@@]12C(=O)Nc1cc(Cl)c(F)cc12 [MI-702] |  |  |  |  |  | IC50 [1, 15]: 1.9 ± 0.3 µM; IC50 [1, 16]: 14.3 ± 2.9 µM; IC50 [2, 17]: 12.7 ± 2.3 µM; IC50 [2, 18]: 5.8 ± 1.7 µM; IC50 [3, 19]: > 1 µM |
| O=C(NCC[C@H](O)CO)[C@@H]1N[C@H](CCc2cccs2)[C@]2(C(=O)Nc3cc(Cl)c(F)cc32)[C@H]1c1cccc(Cl)c1 [MI-703] |  |  |  |  |  | IC50 [1, 15]: 0.2 µM; IC50 [1, 16]: 3.9 ± 0.5 µM; IC50 [2, 17]: 4.3 ± 1.6 µM; IC50 [2, 18]: 1 ± 0.2 µM; IC50 [3, 19]: > 1 µM |
| O=C(NCC[C@H](O)CO)[C@@H]1N[C@H](CCCc2ccccc2)[C@]2(C(=O)Nc3cc(Cl)c(F)cc32)[C@H]1c1cccc(Cl)c1 [MI-704] |  |  |  |  |  | IC50 [1, 15]: 6.8 ± 0.2 µM; IC50 [1, 16]: 18 ± 5.1 µM; IC50 [2, 17]: 12.1 ± 1 µM; IC50 [2, 18]: 3 ± 0.9 µM; IC50 [3, 19]: > 1 µM |
